# Test results: patent US4737496A, “1,3,4,16b-tetra hydro-2H,10H-indolo[2,1-c]pyrazino-[1,2-a][1,4]benzodiazepines useful as serotonin-2 receptor antagonists” (Ciba-Geigy Corporation, priority 1986, dated 1988)
# Assays:
# serotonin-2 receptor [1] = target: T1, serotonin-2 receptor (Rattus norvegicus, UniProt P14842); experiment: in vivo displacement of 3H-spiperone binding in rat brain; set-up: serotonin-2 receptors in rat brain; from tissue; host or cells: rat brain, in vivo; details: ip
# Method: In vivo, the compounds according to the present application displace the binding of ^3 H-spiperone to serotonin-2 receptors in rat brain. Illustrative of the invention, the compound of example 1 displaces the binding of ^3 H-spiperone with an ED50 value of about 2 mg/Kg i.p.
# serotonin-2 receptor [2] = target: T1, serotonin-2 receptor; experiment: 5-hydroxytryptophane-induced head twitch test; type: in vivo; set-up: membrane preparations of frontal/parietal cortex from male Sprague-Dawley rats; from tissue; host or cells: frontal/parietal cortex membranes, male Sprague-Dawley rat; details: po, 5-HTP induced head twitch, read-out: effective dose in the head twitch test
# Method: The head twitch test for assessing central nervous system serotonin-2 receptor antagonism in the rat is described in Neuropharmacology 16, 663 (1977) and in J. Pharmacol. Exp. Ther. 228, 133 (1984). The test is carried out as follows:
# Male Wistar rats (120-180 g) are fasted for 18 hours prior to testing but allowed water ad libitum. All animals are pretreated with the peripheral decarboxylase inhibitor alpha-methyl-DOPA hydrazine (carbidopa, 25 mg/kg i.p., 4.0 ml/kg) followed 30 minutes later by 5-hydroxy-tryptophane (5-HTP 100 mg/kg s.c., 4.0 ml/kg). Ninety minutes after receiving 5-HTP, the rats are placed individually in plexiglass observation cages and the frequency of head twitches for each animal is counted over a 10 minute observation period. The test compound or vehicle is administered at either 0.5 hour at 1.0 ml/kg i.p. or at 1, 2 or 4 hours at 10 ml/kg p.o. prior to the observation period. ED50 values are determined by probit analysis.
# serotonin-2 receptor [3] = target: T1, serotonin-2 receptor; experiment: biochemical
# Method: The serotonin-2 receptor (also named 5-hydroxytryptamine-2 or 5HT-2 receptor) binding properties are determined in vitro by measuring the ability of said compounds to inhibit the specific binding of ^3 H-ketanserin, in membrane preparations of frontal/parietal cortex from male Sprague-Dawley rats essentially as described by Battaglia et al. in Life Sciences 33, 2011 (1983). IC50 values, representing the concentration of compound required to displace 50% of ^3 H-ketanserin, are determined by log-logit analysis of the specific binding data.
# T1 sequence (P14842 whole entry): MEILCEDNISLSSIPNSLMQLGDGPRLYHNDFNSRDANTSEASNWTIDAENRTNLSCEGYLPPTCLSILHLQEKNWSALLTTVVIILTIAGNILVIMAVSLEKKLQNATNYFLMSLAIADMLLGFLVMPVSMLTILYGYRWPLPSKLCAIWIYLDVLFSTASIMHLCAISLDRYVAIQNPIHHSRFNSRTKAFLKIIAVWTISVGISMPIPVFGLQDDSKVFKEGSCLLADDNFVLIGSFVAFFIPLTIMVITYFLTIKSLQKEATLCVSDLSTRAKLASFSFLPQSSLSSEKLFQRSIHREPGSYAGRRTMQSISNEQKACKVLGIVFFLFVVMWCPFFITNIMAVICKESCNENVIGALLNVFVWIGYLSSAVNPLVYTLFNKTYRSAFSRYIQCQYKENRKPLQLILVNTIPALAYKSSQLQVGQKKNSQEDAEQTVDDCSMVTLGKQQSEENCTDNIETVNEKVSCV
compound,measurement,setting,value
"COC(=O)c1c2n(c3ccccc13)Cc1ccccc1N1CCN(C)CC21 (stereo not drawn) [Example 1, methyl 1,3,4,16b-tetrahydro-2-methyl-2H,10H-indolo[2,1-c]pyrazino[1,2-a][1,4]benzodiazepine-16-carboxylate]",ED50,serotonin-2 receptor [1],~2 mg/kg
same,ED50,serotonin-2 receptor [2],~3 mg/kg
same,IC50,serotonin-2 receptor [3],~4 nM
